Data on one compound can be found in ChEMBL document CHEMBL3091331, “Aminothiazole-featured pirinixic acid derivatives as dual 5-lipoxygenase and microsomal prostaglandin E2 synthase-1 inhibitors with improved potency and efficiency in vivo” (J Med Chem, 2013).

For assay [1], the target named is T1, Polyunsaturated fatty acid lipoxygenase ALOX15 (Homo sapiens) (UniProt P16050).
T1 sequence (whole entry): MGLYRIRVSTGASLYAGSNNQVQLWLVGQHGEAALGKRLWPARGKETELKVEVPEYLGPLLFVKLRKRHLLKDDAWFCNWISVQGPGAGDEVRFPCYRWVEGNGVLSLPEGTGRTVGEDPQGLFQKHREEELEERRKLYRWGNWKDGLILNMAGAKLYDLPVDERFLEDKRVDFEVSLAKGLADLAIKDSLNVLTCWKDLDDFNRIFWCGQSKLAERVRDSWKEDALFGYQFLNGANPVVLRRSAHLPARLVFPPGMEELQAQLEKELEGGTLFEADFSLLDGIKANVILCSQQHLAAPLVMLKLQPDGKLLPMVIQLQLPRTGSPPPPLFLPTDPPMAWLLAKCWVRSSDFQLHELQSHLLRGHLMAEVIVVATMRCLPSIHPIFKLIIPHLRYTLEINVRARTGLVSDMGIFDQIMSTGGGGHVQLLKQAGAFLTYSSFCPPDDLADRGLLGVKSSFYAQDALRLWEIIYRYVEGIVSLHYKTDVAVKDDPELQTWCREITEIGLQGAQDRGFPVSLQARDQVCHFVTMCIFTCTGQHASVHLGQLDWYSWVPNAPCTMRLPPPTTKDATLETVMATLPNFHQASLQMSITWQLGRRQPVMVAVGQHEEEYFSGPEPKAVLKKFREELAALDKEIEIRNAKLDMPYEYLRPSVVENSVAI
Put plainly: Inhibition of 15-lipoxygenase in human polymorphonuclear leukocytes using arachidonic acid as substrate assessed as remaining activity at 10 uM incubated 15 mins prior to substrate addition measured after 10 mins by HPLC analysis relative to control. It is filed as cell-based.

For assay [2], the species on record is Homo sapiens. Put plainly: Translocation of 5-lipoxygenase from cytosol into nuclear membrane in A23187-stimulated human polymorphonuclear leukocytes assessed as enzyme product formation at 10 uM incubated for 15 mins prior to A23187-challenge measured after 5 mins by Western blotting analysis. It is filed as functional. A general note: In western blotting, separated proteins are transferred to a membrane and probed.

For assay [3], the species on record is Homo sapiens. Description: (§1) Inhibition of reactive oxygen species generation in PMA-stimulated human polymorphonuclear leukocytes incubated for 15 mins prior to PMA-challenge by fluorescence assay. It is filed as functional.
The nature of assay [4]: as §1. It is filed as functional.
Assay [5] addresses MAP kinase p38 (Homo sapiens) (UniProt O15264+Q15759+Q16539+P53778). Description: Inhibition of fMLP-mediated p38 MAPK phosphorylation in human polymorphonuclear leukocytes incubated for 15 mins prior to fMLP-challenge measured after 1.5 mins by SDS-PAGE analysis. It is filed as cell-based.
Assay [6] concerns Mus musculus. Description: Reduction of PGE2 biosynthesis in CD-1 mouse peritonitis model at 10 mg/kg, ip administered 30 mins prior to zymosan-challenge measured after 4 hrs by RIA relative to vehicle-treated control. It is filed as functional. The settings on record: CD-1, ip, route intraperitoneal.
In assay [7] the test system is Mus musculus. Put plainly: Antiinflammatory activity in CD-1 mouse peritonitis model assessed as reduction in vascular permeability at 10 mg/kg, ip administered 30 mins prior to zymosan-challenge measured after 4 hrs relative to vehicle-treated control. It is filed as functional. The settings on record: CD-1, ip, route intraperitoneal.
The target of another assay is T2, Prostaglandin E synthase (Homo sapiens, UniProt O14684).
T2 sequence (O14684 whole entry): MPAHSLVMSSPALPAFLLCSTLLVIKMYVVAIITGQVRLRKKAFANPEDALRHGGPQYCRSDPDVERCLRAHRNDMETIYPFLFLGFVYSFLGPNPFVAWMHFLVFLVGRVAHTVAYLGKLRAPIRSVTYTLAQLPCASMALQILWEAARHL
Description: Inhibition of mPGES-1 from human A549 cell microsomal membranes using PGH2 as substrate incubated 15 mins prior to substrate addition measured after 1 min by RP-HPLC analysis.

Assay [8] deals with T3, Prostaglandin G/H synthase 2 (Homo sapiens) (UniProt P35354).
T3 sequence (whole entry): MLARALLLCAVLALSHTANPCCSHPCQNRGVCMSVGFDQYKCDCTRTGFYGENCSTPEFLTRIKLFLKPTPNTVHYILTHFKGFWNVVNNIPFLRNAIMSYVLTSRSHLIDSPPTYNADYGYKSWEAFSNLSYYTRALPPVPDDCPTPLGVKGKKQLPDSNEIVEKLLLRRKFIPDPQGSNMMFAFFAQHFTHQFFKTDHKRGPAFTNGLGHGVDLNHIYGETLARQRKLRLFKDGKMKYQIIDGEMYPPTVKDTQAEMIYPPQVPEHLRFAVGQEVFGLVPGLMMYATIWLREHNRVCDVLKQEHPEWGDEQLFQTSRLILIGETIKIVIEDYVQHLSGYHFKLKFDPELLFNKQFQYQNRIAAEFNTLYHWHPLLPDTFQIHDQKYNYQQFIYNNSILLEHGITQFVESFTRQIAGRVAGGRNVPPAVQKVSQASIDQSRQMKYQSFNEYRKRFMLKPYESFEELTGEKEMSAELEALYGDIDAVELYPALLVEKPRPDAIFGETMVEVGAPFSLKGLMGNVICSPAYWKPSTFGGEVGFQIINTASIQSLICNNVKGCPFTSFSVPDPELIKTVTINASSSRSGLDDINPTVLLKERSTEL
The settings on record: at 10 µM.
Description: Inhibition of human recombinant COX2 using arachidonic acid as substrate at 10 uM incubated 5 mins prior to substrate addition measured after 5 mins by HPLC analysis

Assay [9] has as its system Mus musculus. Put plainly: Reduction of 6-keto […] formation in CD-1 mouse peritonitis model at 10 mg/kg, ip administered 30 mins prior to zymosan-challenge measured after 4 hrs by EIA (reference value: 3.89 +/- 0.58 ng/ml). Also noted: dose 10 mg/kg. It is filed as functional, organism-based.

Calls of active or inactive are those of the source. The calls are words filed in the database; no cut-off is given here.

For orientation: inhibition means how much of the control response was suppressed. What is called IC50 is the point on the concentration scale where inhibition reaches its midpoint. A high value points to weaker potency. Broadly, the inhibition in vivo is the percentage by which the read-out fell short of the control.

As for `CCCCCCC(Sc1nc(Cl)cc(Nc2nc(-c3ccc4ccccc4c3)cs2)n1)C(=O)O` (racemic), the Activity in assay [1] stood at 84%. The outcome in the assay filed under Homo sapiens [2] was inactive. In addition, the inhibition result in the assay filed under Homo sapiens [3] is “Dose-dependent effect”; in assay [8] it was 18%. The IC50 in [4] worked out at 8 µM; against Prostaglandin E synthase it was 0.4 µM. The inhibition result (in assay [5]; in the assay on Mus musculus [9]) was “inactive” throughout. Further, the inhibition in vivo at 10 mg/kg in the assay on Mus musculus [6] stood at 46%; with Mus musculus [7] it was 57%.
